Test results reported in patent US5736510A, “Antibiotics 10381v, w, x,y, z1, z2, pre-b and t” (priority 1996, dated 1998).
Where two headings read alike, the source gives them in different places.

Experiments:
Format in all cases: cell-based
[1] = tested on: C. perfringens; design: Minimal Inhibitory Concentration (bioactivity data): unit not given here; conditions: Table IV (separate study)
[2] = tested on: S. faecalis; conditions: Table IV (separate study)
[3] = tested on: S. bovis; conditions: strain JB1; Table IV (separate study)
[4] = tested on: B. fragilis; conditions: strain UC9370; Table IV (separate study)
[5] = tested on: B. thetaiotaomicron; conditions: strain UC9014; Table IV (separate study)
Experimental: (§1) The assay measures the ability of a compound to inhibit the growth of certain types of anaerobic bacteria which normally inhabit the gut of poultry, swine or cattle.
(§2) Two mg/ml solutions of the drugs to be tested are made in 10% v/v ethanol/water. This stock is then diluted to one mg per ml and then further diluted through a series of ten-two fold dilutions. At each concentration an aliquot is placed in a sterile petri plate. Nine volumes of molten agar are then added to each plate, mixed and allowed to harden at room temperature. These plates are then transferred to a Coy chamber and allowed to dry and equilibrate with the oxygen free atmosphere.
(§3) Organisms used for MIC testing are inoculated into broth media, and incubated 18-24 h at 39° C. prior to use. The cultures are then diluted to equal the turbidity of a 0.5 MacFarland barium sulfate standard, except for the porcine isolates P108-3C1, P105-1C3 and P105-1C4 which are diluted 1:1. All inoculations and dilutions are performed in the anaerobic chamber using broth media and syringe transfer through the butyl robber stoppers.
(§4) Freshly prepared and diluted cultures are loaded into the wells of a Steers replicator device. This apparatus can dispense ca 10 μl of each of 32 cultures onto the surface of the preincubated agar plates. One hour after the inoculation, the inoculum will have been absorbed and the plates are inverted and incubated at 38°-39° C. for 48 h. Plates are then removed from the chamber and the MIC for the test compounds determined. MIC's are reported as the lowest concentration of a compound which prevented detectable growth of a test organism on the agar plates. […] Thus, each set of test plates yields individual MIC values for each of the 32 test organisms.

[6] = tested on: E. lentum; conditions: strain L-34; Table IV (separate study)
[7] = tested on: B. fibrisolvens; conditions: Table IV (separate study)
[8] = tested on: M. elsdenii; conditions: strain B159; Table IV (separate study)
[9] = tested on: L. multiparus; conditions: strain 40; Table IV (separate study)
[10] = tested on: S. ruminantium; conditions: Table IV (separate study)
[11] = tested on: R. amylophilus; conditions: strain H18; Table IV (separate study)
[12] = tested on: R. flavefaciens; conditions: Table IV (separate study)
[13] = tested on: P. ruminicola; conditions: strain 118B; Table IV (separate study)
[14] = tested on: F. necrophorum; conditions: Table IV (separate study)
[15] = tested on: S. hyodysenteriae; design: unit not given here; conditions: Table IV (separate study)
Experimental: as §1, §2, §3, §4

[16] = tested on: anaerobic bacteria which normally inhabit the gut of poultry, swine or cattle; assay: in vitro MIC assay, overall comparison of components across the test organisms; conditions: conclusion from Tables III and IV
Experimental: as §1, §2, §3, §4

[17] = tested on: E. ruminantium; conditions: strain GA195; Table IV (separate study)

Compound | Minimal Inhibitory Concentration (bioactivity data) ([1]; strain A82-1) | Minimal Inhibitory Concentration (bioactivity data) ([1]; strain A83-3) | Minimal Inhibitory Concentration (bioactivity data) ([1]; strain A83-RKP) | Minimal Inhibitory Concentration (bioactivity data) ([1]; strain CCS2-09) | Minimal Inhibitory Concentration (bioactivity data) ([1]; strain P1051C3) | Minimal Inhibitory Concentration (bioactivity data) ([1]; strain P1083C1) | Minimal Inhibitory Concentration (bioactivity data) ([1]; strain RF1B04) | Minimal Inhibitory Concentration (bioactivity data) ([1]; strain UC9452) | Minimal Inhibitory Concentration (bioactivity data) ([2]; strain 71A01) | Minimal Inhibitory Concentration (bioactivity data) ([2]; strain CCS1-03) | Minimal Inhibitory Concentration (bioactivity data) ([2]; strain P1051C4) | Minimal Inhibitory Concentration (bioactivity data) [3] | Minimal Inhibitory Concentration (bioactivity data) [4] | Minimal Inhibitory Concentration (bioactivity data) [5] | Minimal Inhibitory Concentration (bioactivity data) [6] | Minimal Inhibitory Concentration (bioactivity data) ([7]; strain 49) | Minimal Inhibitory Concentration (bioactivity data) ([7]; strain D1) | Minimal Inhibitory Concentration (bioactivity data) [8] | Minimal Inhibitory Concentration (bioactivity data) [9] | Minimal Inhibitory Concentration (bioactivity data) ([10]; strain GA31) | other results
C=C(NC(=O)C(=C)NC(=O)C(=C)NC(=O)c1ccc2c(n1)-c1coc(n1)C(=C)NC(=O)C(=C)NC(=O)c1nc(oc1C)C(=CC)NC(=O)c1csc(n1)CNC(=O)c1nc(oc1C)C(=CC(C)O)NC(=O)C(C(C)O)NC(=O)c1csc-2n1)C(N)=O (centres unmarked) [Antibiotic 10381pre-b] | > 100 | 1.6 | 1.6 | 50.0 | > 100 | 25.0 | 1.6 | 25.0 | > 100 | > 100 | > 100 | 50.0 | > 100 | > 100 | < 0.2 | 50.0 | 12.5 | > 100 | > 100 | 50.0 | Minimal Inhibitory Concentration (bioactivity data) ([10]; strain GA192): 6.3; Minimal Inhibitory Concentration (bioactivity data) [11]: > 100; Minimal Inhibitory Concentration (bioactivity data) ([12]; strain C94): 25.0; Minimal Inhibitory Concentration (bioactivity data) ([12]; strain FD1): 25.0; Minimal Inhibitory Concentration (bioactivity data) [13]: < 0.2; Minimal Inhibitory Concentration (bioactivity data) ([14]; strain FN4070): > 100; Minimal Inhibitory Concentration (bioactivity data) ([14]; strain FN5052): > 100; Minimal Inhibitory Concentration (bioactivity data) ([15]; strain 16-4): > 100; Minimal Inhibitory Concentration (bioactivity data) ([15]; strain B204): > 100; in vitro activity ranking of the individual components [16]: considerably less active
C=C1NC(=O)c2nc(oc2C)C(=CC)NC(=O)c2csc(n2)C(OC)NC(=O)c2nc(oc2C)C(=CC(C)O)NC(=O)C(C(C)O)NC(=O)c2csc(n2)-c2ccc(C(N)=O)nc2-c2coc(n2)C(=C)NC1=O (centres unmarked) [Antibiotic 10381v] | > 100 | 0.8 | 1.6 | > 100 | 100 | 100 | 0.8 | 6.3 | > 100 | > 100 | > 100 | > 100 | > 100 | > 100 | 25.0 | 50.0 | 25.0 | > 100 | > 100 | 25.0 | Minimal Inhibitory Concentration (bioactivity data) ([10]; strain GA192): 100; Minimal Inhibitory Concentration (bioactivity data) [11]: 3.1; Minimal Inhibitory Concentration (bioactivity data) ([12]; strain C94): 25.0; Minimal Inhibitory Concentration (bioactivity data) ([12]; strain FD1): 25.0; Minimal Inhibitory Concentration (bioactivity data) [17]: 12.5; Minimal Inhibitory Concentration (bioactivity data) [13]: < 0.2; Minimal Inhibitory Concentration (bioactivity data) ([14]; strain FN4070): 100; Minimal Inhibitory Concentration (bioactivity data) ([14]; strain FN5052): > 100; Minimal Inhibitory Concentration (bioactivity data) ([15]; strain 16-4): > 100; Minimal Inhibitory Concentration (bioactivity data) ([15]; strain B204): > 100; in vitro activity ranking of the individual components [16]: considerably less active
C=C(NC(=O)c1ccc2c(n1)-c1nc(oc1C)C(C)NC(=O)c1csc(n1)C(C)NC(=O)c1nc(oc1C)CNC(=O)C(C(C)C)NC(=O)c1csc-2n1)C(N)=O (centres unmarked) [Antibiotic 10381w] | > 100 | 12.5 | > 100 | > 100 | > 100 | > 100 | 100 | > 100 | > 100 | > 100 | > 100 | > 100 | > 100 | > 100 | 25.0 | > 100 | > 100 | > 100 | > 100 | 1.6 | Minimal Inhibitory Concentration (bioactivity data) ([10]; strain GA192): 12.5; Minimal Inhibitory Concentration (bioactivity data) [11]: > 100; Minimal Inhibitory Concentration (bioactivity data) ([12]; strain C94): 100; Minimal Inhibitory Concentration (bioactivity data) ([12]; strain FD1): > 100; Minimal Inhibitory Concentration (bioactivity data) [17]: 25; Minimal Inhibitory Concentration (bioactivity data) [13]: < 0.2; Minimal Inhibitory Concentration (bioactivity data) ([14]; strain FN4070): > 100; Minimal Inhibitory Concentration (bioactivity data) ([14]; strain FN5052): > 100; Minimal Inhibitory Concentration (bioactivity data) ([15]; strain 16-4): > 100; Minimal Inhibitory Concentration (bioactivity data) ([15]; strain B204): > 100; in vitro activity ranking of the individual components [16]: considerably less active
